Experimental data as given in patent US20170304195A1, “PHARMACEUTICAL FORMULATIONS FOR THE ORAL DELIVERY OF PEPTIDE OR PROTEIN DRUGS” (Cyprumed GmbH, priority 2014, published 2017).
Structures can show the parent of a compound that is named as a salt. One block for each compound: values may come before it.

Assays:
[1] = In vitro compatibility of absorption enhancers with zinc sulfate (Example 16); type: physicochemical; conditions: absorption enhancer 10 mg/ml with desmopressin acetate and ZnSO4 5 mg/ml, in 2 ml aqua purificata, visual examination
Experimental: Solid dry powder mixtures of desmopressin acetate, zinc sulfate and different absorption enhancers were prepared and dissolved in 2 ml aqua purificata.

[2] = pH of dissolved solid powder mixtures (Example 17); type: physicochemical; conditions: lactose 50 mg, no buffer
[3] = Compatibility of absorption enhancers with Cu2+ and Cu+ salts (dissolution in aqueous medium); type: physicochemical; conditions: absorption enhancer 10 mg/ml
Description: Various absorption enhancers were screened regarding their compatibility with the trace element copper in the two main oxidation states as Cu^2+ and Cu^+.

[4] = Plasma liraglutide levels after mid-jejunum administration (Example 6, FIG. 1); type: in vivo, Sprague Dawley rats
Experimental: FIG. 1: Plasma liraglutide levels after intestinal (mid-jejunum) administration of different liraglutide formulations to rats (see Example 6).
Administration into Mid-Jejunum in Rats:
The wound margins were released from the base.
Dosing was performed slowly.
Correctness of the application was checked.
2.4 mg/kg of the polypeptide liraglutide were dosed into the mid-jejunum of anesthetized Sprague Dawley rats in the presence of the zwitter-ionic absorption enhancer lauroyl carnitine chloride (“LCC”) (20 mg/ml) with and without the addition of (i) the trace element CuSO4 (1 mg/ml) and the reducing agent sodium ascorbate (40 mg/ml) or (ii) the trace element ZnSO4 (1 mg/ml) and the reducing agent glutathione (40 mg/ml). All formulations further comprised Na2HPO4 to result in a neutral pH between 7 to 8.

[5] = Octreotide pharmacokinetics after s.c. or ileum administration (Example 9); type: in vivo, Sprague Dawley rats; conditions: for AUC(0-t): read-out: AUC(0-90) (converted)
Experimental: TRIS buffer was used to generate a neutral pH.
The octreotide plasma concentrations were determined using a commercial octreotide kit (AB Biolabs, USA, cat. number CEK 0110-01).

[6] = background statement, unformulated drug; cited from earlier work
[7] = Vancomycin pharmacokinetics after i.v. or ileum administration (Example 5); type: in vivo, Sprague Dawley rats; conditions: for AUC(0-t) / Cmax: anesthetized rats
Experimental: The vancomycin plasma concentrations were determined on biochemical autoanalyser Hitachi 912 using commercial vancomycin kit VANC2 (Roche Diagnostics GmbH, Germany). The absolute bioavailability (F) was calculated using equation F (%)=(AUCileum/AUCi.v.)×(Dosei.v./Doseileum)×100.

[8] = Human growth hormone formulation, pharmacokinetics after s.c. or ileum administration (Example 13); type: in vivo, Sprague Dawley rats
Experimental: The human growth hormone plasma concentrations were determined using commercial growth hormone sensitive human ELISA kit (Biovendor, EU, cat. number RMEE022).

[9] = CuSO4 1 mg/ml, sodium ascorbate 10 mg/ml
[10] = Sprague Dawley, rat, plasma, other: into distal small intestine (ileum), octreotide 0.92 mg/kg ileum (n = 8), lauroyl carnitine chloride 30 mg/ml, CuSO4 1 mg/ml, sodium ascorbate 30 mg/ml, TRIS 22.5 mg/ml
[11] = Sprague Dawley, rat, plasma, sc, octreotide 1 mg/kg s.c., anesthetized rats (n = 3)
[12] = Cu(I)Cl 1 mg/ml, sodium ascorbate 10 mg/ml
[13] = copper (I) acetate 1 mg/ml, sodium ascorbate 10 mg/ml
[14] = Sprague Dawley, rat, plasma, iv, vancomycin 5 mg/kg i.v.
[15] = Sprague Dawley, rat, plasma, vancomycin 20 mg/kg into ileum, lauroyl carnitine 50 mg/ml, CuSO4 1 mg/ml, sodium ascorbate 250 mg/ml
[16] = s.c. 1 ml/kg, 0.2 mg/ml human growth hormone, anaesthetized rats

Compound: C[C@H](CCC(=O)O)[C@H]1CC[C@H]2[C@@H]3[C@H](O)C[C@@H]4C[C@H](O)CC[C@]4(C)[C@H]3C[C@H](O)[C@]12C [Cholic acid]
Dissolution in aqueous medium (2 ml) [1]: Precipitation

Dissolution pH in 5 ml Aqua purificata ([2]; CuSO4 10 mg, citric acid 10 mg): 2.6 | Dissolution pH in 5 ml Aqua purificata ([2]; CuSO4 10 mg, no absorption enhancer): 4.7 | Dissolution pH in 5 ml Aqua purificata ([2]; ZnSO4 10 mg, citric acid 10 mg): 2.7 | Dissolution pH in 5 ml Aqua purificata ([2]; ZnSO4 10 mg, no absorption enhancer): 5.5
Compound: NC(=O)CC[C@@H]1NC(=O)[C@H](Cc2ccccc2)NC(=O)[C@H](Cc2ccc(O)cc2)NC(=O)CCSSC[C@@H](C(=O)N2CCC[C@H]2C(=O)N[C@H](CCCN=C(N)N)C(=O)NCC(N)=O)NC(=O)[C@H](CC(N)=O)NC1=O [Desmopressin, Desmopressin acetate]

Dissolution in aqueous medium (2 ml) [3, 9]: Clear solution | Dissolution in aqueous medium (2 ml) [1]: Clear solution
Compound: O=C(O)CN(CCN(CC(=O)O)CC(=O)O)CC(=O)O [EDTA, ethylenediaminetetraacetic acid]

Compound: CCCCCCCCCCCC(=O)OC(CC(=O)O)C[N+](C)(C)C.[Cl-] (stereo not drawn) [Lauroyl carnitine HCl]
Dissolution in aqueous medium (2 ml) [1]: Clear solution

Compound: CCCCCCCCCCCC(=O)OC(CC(=O)O)C[N+](C)(C)C.[Cl-] (stereo not drawn) [Lauroyl carnitine]
Dissolution in aqueous medium (2 ml) ([3]; CuSO4 1 mg/ml, glutathione 10 mg/ml): Clear solution | Dissolution in aqueous medium (2 ml) [3, 9]: Clear solution

Compound: CCCCCCCCCCCCCCCC(=O)N[C@@H](CCC(=O)NCCCC[C@H](NC(=O)[C@H](C)NC(=O)[C@H](C)NC(=O)[C@H](CCC(N)=O)NC(=O)CNC(=O)[C@H](CCC(=O)O)NC(=O)[C@H](CC(C)C)NC(=O)[C@H](Cc1ccc(O)cc1)NC(=O)[C@H](CO)NC(=O)[C@H](CO)NC(=O)[C@@H](NC(=O)[C@H](CC(=O)O)NC(=O)[C@H](CO)NC(=O)[C@@H](NC(=O)[C@H](Cc1ccccc1)NC(=O)[C@@H](NC(=O)CNC(=O)[C@H](CCC(=O)O)NC(=O)[C@H](C)NC(=O)[C@@H](N)Cc1cnc[nH]1)[C@@H](C)O)[C@@H](C)O)C(C)C)C(=O)N[C@@H](CCC(=O)O)C(=O)N[C@@H](Cc1ccccc1)C(=O)N[C@H](C(=O)N[C@@H](C)C(=O)N[C@@H](Cc1c[nH]c2ccccc12)C(=O)N[C@@H](CC(C)C)C(=O)N[C@H](C(=O)N[C@@H](CCCNC(=N)N)C(=O)NCC(=O)N[C@@H](CCCNC(=N)N)C(=O)NCC(=O)O)C(C)C)[C@@H](C)CC)C(=O)O [Liraglutide, liraglutide]
intestinal absorption of liraglutide (plasma levels, FIG. 1), in words ([4]; LCC 20 mg/ml + CuSO4 1 mg/ml + sodium ascorbate 40 mg/ml, compared with LCC alone): substantially increased the intestinal absorption | liraglutide absorption (plasma levels, FIG. 1), in words ([4]; LCC 20 mg/ml + ZnSO4 1 mg/ml + glutathione 40 mg/ml, compared with LCC alone and with the Cu2+ composition): improved liraglutide absorption albeit less pronounced

Compound: C[C@@H](O)[C@@H]1NC(=O)[C@H](CCCCN)NC(=O)[C@@H](Cc2c[nH]c3ccccc23)NC(=O)[C@H](Cc2ccccc2)NC(=O)[C@@H](NC(=O)[C@H](N)Cc2ccccc2)CSSC[C@@H](C(=O)N[C@H](CO)[C@@H](C)O)NC1=O [Octreotide]
Cmax [5, 10]: 25.8 ± 14.2 ng/mL | AUC(0-t) [5, 10]: 25.1 ng·h/mL | Cmax [5, 11]: 154 ± 29.8 ng/mL | AUC(0-t) [5, 11]: 167 ng·h/mL | F rel ([5]; Sprague Dawley, rat, plasma, octreotide 0.92 mg/kg ileum, lauroyl carnitine chloride 30 mg/ml, CuSO4 1 mg/ml, sodium ascorbate 30 mg/ml, TRIS 22.5 mg/ml, vs s.c.): 16.3 ± 7.8% | F ([5]; octreotide 1 mg/kg s.c. (reference)): 100 ± 18.3% | bioavailability, in words ([5]; octreotide formulation with copper(II) salt, sodium ascorbate, lauroyl carnitine chloride): markedly increased bioavailability | oral bioavailability [6]: less than 1%

Dissolution in aqueous medium (2 ml) [3, 12]: Clear solution | Dissolution in aqueous medium (2 ml) [3, 9]: Precipitation | Dissolution in aqueous medium (2 ml) [3, 13]: Clear solution | Dissolution in aqueous medium (2 ml) [1]: Precipitation
Compound: CCCCCCCCCC(=O)[O-].[Na+] [Sodium caprate]

Dissolution in aqueous medium (2 ml) [3, 12]: Clear solution | Dissolution in aqueous medium (2 ml) [3, 9]: Precipitation | Dissolution in aqueous medium (2 ml) [3, 13]: Clear solution | Dissolution in aqueous medium (2 ml) [1]: Precipitation
Compound: CCCCCCCC(=O)[O-].[Na+] [Sodium caprylate]

Compound: C[C@H](CCC(=O)[O-])[C@H]1CC[C@H]2[C@@H]3[C@H](O)C[C@@H]4C[C@H](O)CC[C@]4(C)[C@H]3C[C@H](O)[C@]12C.[Na+] [Sodium cholate]
Dissolution in aqueous medium (2 ml) [1]: Precipitation

Compound: O=C([O-])CC(O)(CC(=O)[O-])C(=O)[O-].[Na+].[Na+].[Na+] [Sodium citrate]
Dissolution in aqueous medium (2 ml) [3, 9]: Clear solution

Dissolution in aqueous medium (2 ml) [3, 9]: Clear solution | Dissolution in aqueous medium (2 ml) [1]: Clear solution
Compound: CCCCCCCCCCCCOS(=O)(=O)[O-].[Na+] [Sodium dodecyl sulfate]

Compound: O=C([O-])c1ccccc1O.[Na+] [Sodium salicylate]
Dissolution in aqueous medium (2 ml) [3, 9]: Clear solution

Compound: CN[C@H](CC(C)C)C(=O)N[C@H]1C(=O)N[C@@H](CC(N)=O)C(=O)N[C@H]2C(=O)N[C@H]3C(=O)N[C@H](C(=O)N[C@H](C(=O)O)c4cc(O)cc(O)c4-c4cc3ccc4O)[C@H](O)c3ccc(c(Cl)c3)Oc3cc2cc(c3O[C@@H]2O[C@H](CO)[C@@H](O)[C@H](O)[C@H]2O[C@H]2C[C@](C)(N)[C@H](O)[C@H](C)O2)Oc2ccc(cc2Cl)[C@H]1O [Vancomycin, Vancomycin hydrochloride]
AUC(0-t) [7, 14]: 11000 ng·h/mL | Cmax [7, 14]: 8800 ± 300 ng/mL | AUC(0-t) [7, 15]: 3000 ng·h/mL | Cmax [7, 15]: 2400 ± 200 ng/mL | bioavailability ([7]; Sprague Dawley, rat, plasma, vancomycin 20 mg/kg into ileum, lauroyl carnitine 50 mg/ml, CuSO4 1 mg/ml, sodium ascorbate 250 mg/ml, vs i.v., read-out: F (absolute bioavailability)): 8 ± 0.4% | F ([7]; vancomycin 5 mg/kg i.v. (reference)): 100 ± 7% | bioavailability in comparison with published F values after oral administration, in words ([7]; vancomycin formulation with lauroyl carnitine, CuSO4, sodium ascorbate): increased markedly its bioavailability | oral bioavailability [6]: ~0.1%

Dissolution in aqueous medium (2 ml) [3, 9]: Clear solution | Dissolution in aqueous medium (2 ml) [1]: Clear solution
Compound: CCCCCCCCCCCCO[C@@H]1O[C@H](CO)[C@@H](O[C@H]2O[C@H](CO)[C@@H](O)[C@H](O)[C@H]2O)[C@H](O)[C@H]1O [n-Dodecyl-beta-D-maltoside]

Dissolution in aqueous medium (2 ml) [3, 9]: Clear solution | Dissolution in aqueous medium (2 ml) [1]: Clear solution
Compound: CCCCCCCCO[C@@H]1O[C@H](CO)[C@@H](O)[C@H](O)[C@H]1O [n-Octyl-beta-D-glucopyranoside]

Compound: Human growth hormone [hGH]
AUC(0-t) [8, 16]: 7630 ± 471 ng·min/mL | Cmax [8, 16]: 44 ng/mL | Tmax [8, 16]: 30 min | F ([8]; s.c. (reference)): 100 ± 6%

Dissolution in aqueous medium (2 ml) [3, 9]: Clear solution
Compound: Methyl-beta-cyclodextrin

Dissolution in aqueous medium (2 ml) [3, 9]: Precipitation
Compound: Sodium lauroyl sarcosinate
